# According to patent US20200405697A1, “Antitumor Agent” (Taiho Pharmaceutical Co., Ltd, priority 2017, published 2020):
# Tests used:
# [1] = system: CFPAC-1 (Human pancreatic cancer cell line); assay: Effect of combination of sulfonamide compound and other antitumor agent (CellTiter-Glo, combination index): CFPAC-1;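 note: cells exposed to both agents together for 3 days, viability read by luminescence, normalized to vehicle-treated control wells, mean of triplicate wells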
# Description: (§1) Each cell line was seeded at 90 L/well to a 96-well culture plate (Thermo Fisher Scientific, Inc.) according to the above tables. The cell-seeded plate was cultured in an incubator set to 37° C. and 500 CO2. On the day following seeding, varying concentrations of the sulfonamide compound and the other antitumor agent were added in combination to the cells. […] The serial dilutions of each compound, or DW was added at 5μL/well to the plate such that each compound and DW, or the sulfonamide compound and the other antitumor agent were combined. […] The plate after the addition was cultured at 37° C. for 3 days under 5% CO2 conditions.
# (§2) Three days later, CellTiter-Glo(R) 2.0 Reagent (Promega Corporation) was added at 100 μL/well, and the amount of luminescence was measured using a plate reader EnSpire(R) Multimode Plate Reader (PerkinElmer Co., Ltd.).
# (§3) An average value from 3 wells was calculated as to each drug condition from the obtained data, and cell survival rate normalized against control wells supplemented with the vehicle (DW) was calculated. A Fa (fractional inhibition) value was calculated by subtracting the cell survival rate from 1.
# [2] = system: A549 (Human lung cancer cell line); assay: Effect of combination of sulfonamide compound and other antitumor agent (CellTiter-Glo, combination index): A549
# [3] = system: MV-4-11 (Human blood cancer cell line); assay: Effect of combination of sulfonamide compound and other antitumor agent (CellTiter-Glo, combination index): MV-4-11
# Description: as §1, §2, §3
# [4] = Example Compound 5 1050 nM + Gemcitabine 5.28 nM
# [5] = Example Compound 14 2080 nM + Gemcitabine 5.28 nM
# [6] = Example Compound 14 3120 nM + Gemcitabine 7.92 nM
# [7] = Example Compound 209A 508 nM + Gemcitabine 5.28 nM
# [8] = Example Compound 235A 722 nM + Gemcitabine 5.28 nM
# [9] = Example Compound 14 4420 nM + Gemcitabine 8.38 nM
# [10] = Example Compound 209A 635 nM + Gemcitabine 5.60 nM
# [11] = Example Compound 209A 952 nM + Gemcitabine 8.39 nM
# [12] = Example Compound 235A 780 nM + Gemcitabine 5.60 nM
# [13] = Example Compound 235A 1170 nM + Gemcitabine 8.40 nM
# [14] = Example Compound 14 1310 nM + Guadecitabine 326 nM
# [15] = Example Compound 14 1970 nM + Guadecitabine 490 nM
# [16] = Example Compound 14 2950 nM + Guadecitabine 734 nM
# [17] = Example Compound 14 4420 nM + Guadecitabine 1100 nM
# [18] = Example Compound 209A 635 nM + Guadecitabine 734 nM
# [19] = Example Compound 235A 520 nM + Guadecitabine 469 nM
# [20] = Example Compound 235A 780 nM + Guadecitabine 704 nM
# [21] = Example Compound 235A 1170 nM + Guadecitabine 1060 nM
# [22] = Example Compound 5 164 nM + Guadecitabine 11.8 nM
# [23] = Example Compound 5 247 nM + Guadecitabine 17.8 nM
# [24] = Example Compound 5 370 nM + Guadecitabine 26.7 nM
# [25] = Example Compound 5 555 nM + Guadecitabine 40.1 nM
# [26] = Example Compound 5 833 nM + Guadecitabine 60.2 nM
# [27] = Example Compound 5 1250 nM + Guadecitabine 90.3 nM
# [28] = Example Compound 14 519 nM + Guadecitabine 17.8 nM
# [29] = Example Compound 14 778 nM + Guadecitabine 26.7 nM
# [30] = Example Compound 14 1170 nM + Guadecitabine 40.2 nM
# [31] = Example Compound 14 1750 nM + Guadecitabine 60.1 nM
# [32] = Example Compound 14 2630 nM + Guadecitabine 90.3 nM
# [33] = Example Compound 209A 96.6 nM + Guadecitabine 17.8 nM
# [34] = Example Compound 209A 217 nM + Guadecitabine 40.0 nM
# [35] = Example Compound 209A 326 nM + Guadecitabine 60.1 nM
# [36] = Example Compound 235A 90.1 nM + Guadecitabine 11.9 nM
# [37] = Example Compound 235A 135 nM + Guadecitabine 17.8 nM
# [38] = Example Compound 235A 304 nM + Guadecitabine 40.1 nM
# [39] = Example Compound 235A 456 nM + Guadecitabine 60.1 nM
# [40] = Example Compound 235A 684 nM + Guadecitabine […]
# [41] = Example Compound 5 466 nM + SCH900776 253 nM
# [42] = Example Compound 5 700 nM + SCH900776 379 nM
# [43] = Example Compound 14 925 nM + SCH900776 253 nM
# [44] = Example Compound 14 1390 nM + SCH900776 380 nM
# [45] = Example Compound 14 2080 nM + SCH900776 569 nM
# [46] = Example Compound 209A 226 nM + SCH900776 253 nM
# [47] = Example Compound 209A 508 nM + SCH900776 568 nM
# [48] = Example Compound 235A 321 nM + SCH900776 253 nM
# [49] = Example Compound 235A 481 nM + SCH900776 379 nM
# [50] = Example Compound 235A 722 nM + SCH900776 569 nM
# [51] = Example Compound 14 874 nM + SCH900776 909 nM
# [52] = Example Compound 14 1310 nM + SCH900776 1360 nM
# [53] = Example Compound 14 1970 nM + SCH900776 2050 nM
# [54] = Example Compound 14 2950 nM + SCH900776 3070 nM
# [55] = Example Compound 209A 188 nM + SCH900776 909 nM
# [56] = Example Compound 209A 282 nM + SCH900776 1360 nM
# [57] = Example Compound 209A 635 nM + SCH900776 3070 nM
# [58] = Example Compound 235A 231 nM + SCH900776 909 nM
# [59] = Example Compound 235A 346 nM + SCH900776 1360 nM
# [60] = Example Compound 235A 520 nM + SCH900776 2050 nM
# [61] = Example Compound 235A 780 nM + SCH900776 3070 nM
# [62] = Example Compound 235A 1170 nM + SCH900776 4610 nM
compound,measurement,setting,value
"Nc1ccn([C@@H]2O[C@H](CO)[C@@H](O)C2(F)F)c(=O)n1 [Gemcitabine, gemcitabine]",CI value,[1]; [4],0.788
same,Fa value,[1]; [4],0.6974
same,CI value,[1]; [5],0.756
same,Fa value,[1]; [5],0.6749
same,CI value,[1]; [6],0.752
same,Fa value,[1]; [6],0.7790
same,CI value,[1]; [7],0.736
same,Fa value,[1]; [7],0.6998
same,CI value,[1]; [8],0.722
same,Fa value,[1]; [8],0.6762
same,CI value,[2]; [9],0.752
same,Fa value,[2]; [9],0.8565
same,CI value,[2]; [10],0.792
same,Fa value,[2]; [10],0.7031
same,CI value,[2]; [11],0.791
same,Fa value,[2]; [11],0.8749
same,CI value,[2]; [12],0.844
same,Fa value,[2]; [12],0.6511
same,CI value,[2]; [13],0.714
same,Fa value,[2]; [13],0.8624
"Nc1ncn([C@H]2C[C@H](OP(=O)(O)OC[C@H]3O[C@@H](n4cnc5c(=O)[nH]c(N)nc54)C[C@@H]3O)[C@@H](CO)O2)c(=O)n1 [Guadecitabine, guadecitabine]",CI value,[2]; [14],0.561
same,Fa value,[2]; [14],0.2913
same,CI value,[2]; [15],0.503
same,Fa value,[2]; [15],0.4560
same,CI value,[2]; [16],0.582
same,Fa value,[2]; [16],0.5553
same,CI value,[2]; [17],0.620
same,Fa value,[2]; [17],0.6875
same,CI value,[2]; [18],0.522
same,Fa value,[2]; [18],0.6179
same,CI value,[2]; [19],0.568
same,Fa value,[2]; [19],0.2878
same,CI value,[2]; [20],0.583
same,Fa value,[2]; [20],0.4237
same,CI value,[2]; [21],0.670
same,Fa value,[2]; [21],0.5377
same,CI value,[3]; [22],0.640
same,Fa value,[3]; [22],0.2498
same,CI value,[3]; [23],0.683
same,Fa value,[3]; [23],0.3527
same,CI value,[3]; [24],0.727
same,Fa value,[3]; [24],0.4905
same,CI value,[3]; [25],0.690
same,Fa value,[3]; [25],0.7205
same,CI value,[3]; [26],0.673
same,Fa value,[3]; [26],0.9023
same,CI value,[3]; [27],0.557
same,Fa value,[3]; [27],0.9892
same,CI value,[3]; [28],0.767
same,Fa value,[3]; [28],0.3318
same,CI value,[3]; [29],0.844
same,Fa value,[3]; [29],0.4449
same,CI value,[3]; [30],0.797
same,Fa value,[3]; [30],0.6448
same,CI value,[3]; [31],0.668
same,Fa value,[3]; [31],0.8620
same,CI value,[3]; [32],0.545
same,Fa value,[3]; [32],0.9686
same,CI value,[3]; [33],0.766
same,Fa value,[3]; [33],0.4376
same,CI value,[3]; [34],0.753
same,Fa value,[3]; [34],0.8301
same,CI value,[3]; [35],0.631
same,Fa value,[3]; [35],0.9675
same,CI value,[3]; [36],0.633
same,Fa value,[3]; [36],0.2567
same,CI value,[3]; [37],0.638
same,Fa value,[3]; [37],0.4131
same,CI value,[3]; [38],0.689
same,Fa value,[3]; [38],0.7974
same,CI value,[3]; [39],0.617
same,Fa value,[3]; [39],0.9524
same,CI value,[3]; [40],0.544
same,Fa value,[3]; [40],0.9930
Cn1cc(-c2cnn3c(N)c(Br)c([C@@H]4CCCNC4)nc23)cn1 [SCH900776],CI value,[1]; [41],0.283
same,Fa value,[1]; [41],0.6428
same,CI value,[1]; [42],0.283
same,Fa value,[1]; [42],0.7803
same,CI value,[1]; [43],0.465
same,Fa value,[1]; [43],0.4714
same,CI value,[1]; [44],0.322
same,Fa value,[1]; [44],0.7231
same,CI value,[1]; [45],0.409
same,Fa value,[1]; [45],0.7671
same,CI value,[1]; [46],0.385
same,Fa value,[1]; [46],0.5579
same,CI value,[1]; [47],0.474
same,Fa value,[1]; [47],0.7649
same,CI value,[1]; [48],0.474
same,Fa value,[1]; [48],0.4978
same,CI value,[1]; [49],0.382
same,Fa value,[1]; [49],0.7223
same,CI value,[1]; [50],0.484
same,Fa value,[1]; [50],0.7722
same,CI value,[2]; [51],0.194
same,Fa value,[2]; [51],0.6512
same,CI value,[2]; [52],0.184
same,Fa value,[2]; [52],0.7883
same,CI value,[2]; [53],0.191
same,Fa value,[2]; [53],0.8714
same,CI value,[2]; [54],0.271
same,Fa value,[2]; [54],0.8814
same,CI value,[2]; [55],0.180
same,Fa value,[2]; [55],0.6553
same,CI value,[2]; [56],0.170
same,Fa value,[2]; [56],0.7965
same,CI value,[2]; [57],0.273
same,Fa value,[2]; [57],0.8744
same,CI value,[2]; [58],0.262
same,Fa value,[2]; [58],0.6135
same,CI value,[2]; [59],0.280
same,Fa value,[2]; [59],0.7038
same,CI value,[2]; [60],0.275
same,Fa value,[2]; [60],0.8035
same,CI value,[2]; [61],0.275
same,Fa value,[2]; [61],0.8771
same,CI value,[2]; [62],0.430
same,Fa value,[2]; [62],0.8705
